The values that follow are results of earlier work, collected in patent publication US20100004582A1, “Wide-Area Parasystemic Treatment of Skin Related Conditions” (PANTEC BIOSOLUTIONS AG, priority 2006, published 2010).

This series deals with psoriasis. The note with it: conventional efalizumab treatment, not via porated skin.

As to efalizumab, the “patients in whom treatment attenuated the disease” value was 22-28 % of patients.
